Literature values in PMC11400633, “Peptides inhibiting the assembly of monomeric human L‐lactate dehydrogenase into catalytically active homotetramer decrease the synthesis of lactate in cultured cells” (Protein Science : A Publication of the Protein Society, 2024).

Columns and labels:
dimeric LDH‐B = details: ref Thabault et al., 2020; read-out: K D for dimeric LDH‐B; cited from earlier work
Excerpt: (§1) In particular, the loss of activity related to the dissociation of tetrameric LDH‐A (Hermann et al., [1981]; Pasti et al., [2022]) prompts the search for peptides able to interfere with the quaternary structure of this enzyme. Peptides can indeed mimic a secondary structure element supposed to be a major determinant of the reciprocal interactions engaged by the subunits of an oligomeric protein (Wang et al., [2021]). Nevertheless, it should be noted that the effectivenes ...

LDH‐5 = details: LDH-5 exposed to pH 2.5, incubated with peptide 2 min, then pH 7.4; ref Nadal‐Bufi et al., 2021; cited from earlier work
Excerpt: as §1, with “... || Structurally speaking, the four subunits of LDH‐5 are arranged as a binary association of dimers, with their N‐ and C‐terminal regions reciprocally engaged in dimer‐dimer interactions (Read et al., [2001]). […] Moreov ...” for “...”

LDH‐A = details: dynamic light scattering; shift from about 240 kDa; ref Jafary et al., 2019; cited from earlier work
Excerpt: as §1

Substance | apparent LDH‐A molecular mass in the presence of peptide (LDH‐A) | other results
ATLKEKLI | – | Kd (dimeric LDH‐B): 1000 µM
Ac-QNGISDLVK-NH2 [Peptide C1] | – | action against LDH‐A (in words) (LDH‐5): ineffective
IYNLLK [hexamer of the literature targeting the C‐terminal region of LDH‐A] | ca. 100 kDa | –
KVVYNV [hexamer of the literature targeting the C‐terminal region of LDH‐A] | ca. 100 kDa | –
